Test results: patent US9044389B2, “Isoxazoline derivatives as pesticides” (Novartis AG, priority 2008, dated 2015)

Test system: Rhipicephalus sanguineus nymphs
Test: Activity in vivo against Rhipicephalus sanguineus nymphs on Mongolian gerbils (spray application)
Settings: tick number reduction vs placebo, Abbot's formula
Procedure: On day 0, gerbils are treated with the test compound at a given dose by spray application. On day +1 (+2), the animals are infested with nymphs of R. sanguineus. Ticks are left on the animals until full repletion. Seven days after infestation nymphs dropped off fully engorged are collected and counted. Efficacy in killing is expressed as a tick number reduction in comparison with a placebo treated group, using the Abbot's formula.

Cc1cc(C2=NOC(c3cc(Cl)cc(Cl)c3)(C(F)(F)F)C2)sc1C(=O)NCC(F)(F)F (centres unmarked) [Compound 1.8, 5-[5-(3,5-dichloro-phenyl)-5-trifluoromethyl-4,5-dihydro-isoxazol-3-yl]-3-methyl-thiophene-2-carboxylic acid (2,2,2-trifluoro-ethyl)-amide]
Efficacy in killing % (Dose 32 mg/kg): 80%

O=C(NCC(F)(F)F)c1sc(C2=NOC(c3cc(Cl)cc(Cl)c3)(C(F)(F)F)C2)cc1-c1ccccc1 (centres unmarked) [Compound 1.21]
Efficacy in killing % (Dose 32 mg/kg): 98%

Cc1cc(C2=NOC(c3cc(Cl)cc(Cl)c3)(C(F)(F)F)C2)sc1C(=O)NCC(=O)NCC(F)(F)F (centres unmarked) [Compound 1.28, 5-[5-(3,5-dichloro-phenyl)-5-trifluoromethyl-4,5-dihydro-isoxazol-3-yl]-3-methyl-thiophene-2-carboxylic acid [(2,2,2-trifluoro-ethylcarbamoyl)-methyl]-amide]
Efficacy in killing % (Dose 10 mg/kg): 96%

Cc1cc(C2=NOC(c3cc(Cl)cc(Cl)c3)(C(F)(F)F)C2)sc1C(=O)NCC1CCCO1 (centres unmarked) [Compound 1.29]
Efficacy in killing % (Dose 100 mg/kg): 92%

Cc1cc(C2=NOC(c3cc(Cl)cc(Cl)c3)(C(F)(F)F)C2)sc1C(=O)Nc1nc(C(F)(F)F)cs1 (centres unmarked) [Compound 1.31]
Efficacy in killing % (Dose 32 mg/kg): 100%

Cc1cc(C2=NOC(c3cc(Cl)cc(Cl)c3)(C(F)(F)F)C2)sc1C(=O)NCc1ccncc1 (centres unmarked) [Compound 1.32]
Efficacy in killing % (Dose 100 mg/kg): 84%

Cc1cc(C2=NOC(c3cc(Cl)cc(Cl)c3)(C(F)(F)F)C2)sc1C(=O)Nc1cccnc1 (centres unmarked) [Compound 1.35]
Efficacy in killing % (Dose 10 mg/kg): 82%

C#CCNC(=O)CNC(=O)c1sc(C2=NOC(c3cc(Cl)cc(Cl)c3)(C(F)(F)F)C2)cc1C (centres unmarked) [Compound 1.48]
Efficacy in killing % (Dose 10 mg/kg): 95%

Cc1cc(C2=NOC(c3cc(Cl)cc(Cl)c3)(C(F)(F)F)C2)sc1C(=O)NCC(=O)NCC#N (centres unmarked) [Compound 1.49]
Efficacy in killing % (Dose 3.2 mg/kg): 85%

Cc1cc(C2=NOC(c3cc(Cl)c(Cl)c(Cl)c3)(C(F)(F)F)C2)sc1C(=O)NCC(=O)NCC(F)(F)F (centres unmarked) [Compound 2.4]
Efficacy in killing % (Dose 10 mg/kg): 90%

Cc1cc(C2=NOC(c3cc(Cl)c(F)c(Cl)c3)(C(F)(F)F)C2)sc1C(=O)NCC(=O)NCC(F)(F)F (centres unmarked) [Compound 2.5]
Efficacy in killing % (Dose 10 mg/kg): 90%
